# Assay results taken from US20240238268A1, “TREATMENTS AND METHODS FOR TREATING ALZHEIMER'S DISEASE” (Board of Supervisors of Louisiana State University and …, priority 2021, published 2024).
# Tests used:
# aged 3xTg-AD female mice [1] = test: BBB permeability: Evan's blue brain penetration; format: in vivo, mouse; settings: formamide extraction of whole brain
# Source text: FIG. 15 is a graph showing blood brain barrier permeability was impaired in aged 3xTg-AD female mice but reversed with TP-064. […] Formamide extraction of Evan's blue infused-whole-brain was quantified. * p<0.05 compared to C57, #p<0.05 compared to 3xTg-AD, evaluated by one-way ANOVA with Tukey's post-hoc analysis.
# aged 3xTg-AD female mice [2] = test: Regional cortical cerebral blood flow, laser speckle contrast imaging; format: in vivo, mouse; settings: 3xTg-AD mice; 30 mg/kg, IP, 7 days; untreated C57BL/6J = 100%
# Experimental: Surgical Preparation and Anesthetic Procedure: Mice were anesthetized with 4% isoflurane (Cat. No. 21295098, Patterson Veterinary, Greeley, CO) and a mixture of O2 and N2O (30:70) via mask. Hair was shaved at the site of surgery (from the nape up to the eyes). Body temperature was maintained at 37° C. by a rodent heating pad with anal probe as a temperature reference (ThermoStar, RWD Life Science, San Diego, CA). Anesthesia was maintained by lowering isoflurane from 4% to 1%.
# Thinned-skull preparation: Mice were placed in a stereotaxic frame to stabilize the skull and artificial tears (Patterson Veterinary, Greeley, CO) was applied in each eye. Dissection scissors and forceps were used to reveal the skull. A high-speed dental drill (RWD Life Science, San Diego, CA) was used to thin the skull creating a small window (1 mm in diameter) approximately 2 mm rostral and 1 mm lateral to the lambda, with saline irrigation to prevent overheating of the skull tissue. Laser speckle contrast imaging or two-photon laser scanning microscopy analyses were conducted following this preparation.
# Laser speckle contrast imaging: Cerebral microvasculature was imaged by utilizing the thin skull preparation method. After thinning the skull, the mouse was placed in a stereotaxic apparatus. […]
# PRMT4 = PRMT4 (Homo sapiens, UniProt Q86X55); settings: cited from earlier work
# Sequence of PRMT4 (Q86X55 whole entry, species assumed): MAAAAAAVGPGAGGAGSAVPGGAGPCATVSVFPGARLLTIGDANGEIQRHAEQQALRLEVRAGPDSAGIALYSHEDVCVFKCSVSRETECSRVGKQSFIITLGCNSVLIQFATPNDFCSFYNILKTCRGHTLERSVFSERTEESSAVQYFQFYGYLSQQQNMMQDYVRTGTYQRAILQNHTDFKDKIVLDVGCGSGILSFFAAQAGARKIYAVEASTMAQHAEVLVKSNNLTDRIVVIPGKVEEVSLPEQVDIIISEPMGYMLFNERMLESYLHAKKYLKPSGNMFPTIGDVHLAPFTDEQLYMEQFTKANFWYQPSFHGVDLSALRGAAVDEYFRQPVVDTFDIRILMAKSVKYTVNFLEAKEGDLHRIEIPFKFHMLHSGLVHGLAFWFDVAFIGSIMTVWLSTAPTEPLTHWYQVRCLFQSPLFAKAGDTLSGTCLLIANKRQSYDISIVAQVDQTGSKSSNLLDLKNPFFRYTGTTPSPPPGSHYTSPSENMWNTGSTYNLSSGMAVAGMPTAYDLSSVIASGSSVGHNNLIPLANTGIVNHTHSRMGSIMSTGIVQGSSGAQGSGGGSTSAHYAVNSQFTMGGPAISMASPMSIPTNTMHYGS
smiles,measurement,setting,value
"CNCCN1CCC(c2cc(CN(C)C(=O)c3cccc(Oc4ccccc4)c3)ccn2)CC1 [TP-064, N-Methyl-N-((2-(1-(2-(methylamino)ethyl)piperidin-4-yl)pyridin-4-yl)methyl)-3-phenoxybenzamide]",brain penetration of Evan's blue (BBB leakage),aged 3xTg-AD female mice [1],lower brain penetration of Evan's blue
same,regional cortical CBF,aged 3xTg-AD female mice [2],194%±8.6
same,selectivity over other histone methyltransferases and non-epigenetic targets,PRMT4,> 100 fold
